Activity calls are given as the source filed them. No stated cut-off is given here; in the data, actives have a measured IC50 and inactives only a lower limit.
Columns and labels:
Format in all cases: functional
Caspase-3 = target: T1, Caspase-3 (Homo sapiens, UniProt P42574); experiment: caspase-3 inhibitors as off-family protease, SAR follow-up, selectivity assay for SENP protease inhibitor project, biochemical, luminescence, set 2 (AID 588599)
T1 sequence (P42574 whole entry): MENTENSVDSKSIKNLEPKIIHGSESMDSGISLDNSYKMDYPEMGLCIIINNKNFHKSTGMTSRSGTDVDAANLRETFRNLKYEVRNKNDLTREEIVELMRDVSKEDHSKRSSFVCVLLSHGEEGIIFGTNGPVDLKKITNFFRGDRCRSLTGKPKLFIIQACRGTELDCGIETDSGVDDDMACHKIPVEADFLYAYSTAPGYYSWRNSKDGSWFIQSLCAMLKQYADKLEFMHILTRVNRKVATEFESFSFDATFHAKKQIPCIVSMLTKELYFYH

[1] = target: T2, Sentrin-specific protease 8 (Homo sapiens, UniProt Q96LD8); experiment: SENP8 protease inhibitors, SAR follow-up, biochemical, luminescence, set 2 (AID 588601)
T2 sequence (Q96LD8 whole entry): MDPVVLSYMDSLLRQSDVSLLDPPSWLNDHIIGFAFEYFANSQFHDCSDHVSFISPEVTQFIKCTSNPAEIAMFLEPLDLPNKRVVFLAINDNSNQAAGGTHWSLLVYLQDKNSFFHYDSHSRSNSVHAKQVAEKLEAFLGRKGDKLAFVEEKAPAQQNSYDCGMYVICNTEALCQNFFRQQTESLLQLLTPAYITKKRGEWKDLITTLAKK

[2] = target: T3, Sentrin-specific protease 7 (Homo sapiens, UniProt Q9BQF6); experiment: SENP7 protease inhibitors, SAR follow-up, biochemical, luminescence, set 2 (AID 588600)
T3 sequence (Q9BQF6 whole entry): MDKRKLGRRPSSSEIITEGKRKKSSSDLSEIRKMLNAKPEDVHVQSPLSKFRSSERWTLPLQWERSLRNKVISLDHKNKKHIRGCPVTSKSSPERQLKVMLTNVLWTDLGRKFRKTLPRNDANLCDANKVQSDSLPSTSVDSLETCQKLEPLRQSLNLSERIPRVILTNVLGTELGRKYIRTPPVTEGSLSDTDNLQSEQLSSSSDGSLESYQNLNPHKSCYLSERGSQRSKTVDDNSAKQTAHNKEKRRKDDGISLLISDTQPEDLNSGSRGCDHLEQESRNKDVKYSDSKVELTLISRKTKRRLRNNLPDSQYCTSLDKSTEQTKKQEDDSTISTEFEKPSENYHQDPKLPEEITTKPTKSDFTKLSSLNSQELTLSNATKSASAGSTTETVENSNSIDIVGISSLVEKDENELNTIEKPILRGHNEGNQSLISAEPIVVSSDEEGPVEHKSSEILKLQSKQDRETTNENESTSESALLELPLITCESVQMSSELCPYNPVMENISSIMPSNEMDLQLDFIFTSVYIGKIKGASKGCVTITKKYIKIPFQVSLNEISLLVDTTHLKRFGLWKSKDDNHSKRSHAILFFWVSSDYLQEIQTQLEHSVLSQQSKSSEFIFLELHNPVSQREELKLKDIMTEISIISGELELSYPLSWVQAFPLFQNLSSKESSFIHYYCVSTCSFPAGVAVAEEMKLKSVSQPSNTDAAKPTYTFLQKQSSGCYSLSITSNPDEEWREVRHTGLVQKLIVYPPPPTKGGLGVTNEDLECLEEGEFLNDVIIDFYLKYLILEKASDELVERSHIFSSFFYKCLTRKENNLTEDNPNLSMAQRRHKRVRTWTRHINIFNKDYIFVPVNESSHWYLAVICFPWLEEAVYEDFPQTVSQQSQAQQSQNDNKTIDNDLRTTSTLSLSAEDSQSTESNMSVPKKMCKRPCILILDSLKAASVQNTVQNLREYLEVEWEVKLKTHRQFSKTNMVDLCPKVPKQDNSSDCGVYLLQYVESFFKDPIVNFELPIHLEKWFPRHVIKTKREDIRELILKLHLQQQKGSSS

[3] = target: T4, Sentrin-specific protease 6 (Homo sapiens, UniProt Q9GZR1); experiment: SENP6 protease inhibitors, SAR follow-up, biochemical, luminescence, set 2 (AID 588598)
T4 sequence (Q9GZR1 whole entry): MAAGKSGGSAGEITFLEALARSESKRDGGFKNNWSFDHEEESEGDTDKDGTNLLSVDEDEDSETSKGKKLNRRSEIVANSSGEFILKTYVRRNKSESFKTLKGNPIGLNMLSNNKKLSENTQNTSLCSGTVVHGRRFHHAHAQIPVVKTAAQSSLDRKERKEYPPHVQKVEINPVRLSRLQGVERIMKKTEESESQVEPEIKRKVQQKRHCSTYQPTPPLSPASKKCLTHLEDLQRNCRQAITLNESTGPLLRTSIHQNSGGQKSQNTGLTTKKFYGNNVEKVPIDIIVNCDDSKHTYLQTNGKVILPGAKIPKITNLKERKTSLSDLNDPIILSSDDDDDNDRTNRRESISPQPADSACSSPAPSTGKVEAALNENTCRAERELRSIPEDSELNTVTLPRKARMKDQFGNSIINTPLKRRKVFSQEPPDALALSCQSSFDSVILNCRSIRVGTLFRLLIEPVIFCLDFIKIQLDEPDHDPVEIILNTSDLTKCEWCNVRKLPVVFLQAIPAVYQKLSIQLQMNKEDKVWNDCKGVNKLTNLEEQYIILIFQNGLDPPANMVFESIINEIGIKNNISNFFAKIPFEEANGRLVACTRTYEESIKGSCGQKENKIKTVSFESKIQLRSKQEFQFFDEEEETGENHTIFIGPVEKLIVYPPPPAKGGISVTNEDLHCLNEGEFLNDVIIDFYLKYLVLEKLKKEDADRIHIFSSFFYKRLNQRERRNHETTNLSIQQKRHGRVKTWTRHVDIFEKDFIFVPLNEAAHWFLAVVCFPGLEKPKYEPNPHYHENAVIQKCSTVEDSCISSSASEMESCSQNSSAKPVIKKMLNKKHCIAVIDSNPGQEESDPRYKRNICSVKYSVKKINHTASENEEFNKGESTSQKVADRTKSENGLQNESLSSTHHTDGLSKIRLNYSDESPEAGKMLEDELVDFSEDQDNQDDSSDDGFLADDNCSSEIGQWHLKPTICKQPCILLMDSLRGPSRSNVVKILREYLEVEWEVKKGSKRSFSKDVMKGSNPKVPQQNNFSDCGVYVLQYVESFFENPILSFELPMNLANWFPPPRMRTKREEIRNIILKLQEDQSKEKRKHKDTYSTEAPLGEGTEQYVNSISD

Measured: IC50

CCCN(CCC)S(=O)(=O)c1ccc2[nH]cc(/C=N/NC(=S)Nc3ccc(F)c(Cl)c3)c2c1
inactive: Caspase-3 > 99 µM | [1] > 99 µM | [2] > 99 µM | [3] > 99 µM

From ChEMBL document CHEMBL1201862, “PubChem BioAssay data set” (2004)
